{"source": "patent US6737383B1", "about": "“Herbicidal oxadiazolidines” (priority 1999, dated 2004)", "key": {"large crabgrass": {"system": "large crabgrass", "experiment": "Test D large crabgrass", "format": "in vivo, Digitaria sanguinalis", "settings": "Preemergence, 0 to 100 scale", "from_the_text": "(§1) Seeds, tubers, or plant parts of Alexandergrass (Brachiaria plantaginea), bermuda-grass (Cynodon dactylon), common pursiane (Portulaca oleracea), common ragweed (Ambrosia elatior), common groundsel (Senecio vulgaris), dallisgrass (Paspalum dilatatum), goosegrass (Eleusine indica), guineagrass (Panicum maximum), itchgrass (Rottboellia exaltata), Johnson grass (Sorghum halepense), large crabgrass (Digitaria sanguinalis), pitted morningglory (Ipomoea lacunosa), purple nutsedge (Cyperus rotundus), sandbur (Cenchrus echinatus), sourgrass (Trichachne insularis), Spanishneedles (Bidens bipinnata), surinam grass (Brachiaria decumbens) and tall mallow (Malva sylvestris) were planted into greenhouse pots of flats containing greenhouse planting medium. Plant species were grown in separate pots or individual compartments. Preemergence applications were made within one day of planting the seed or plant part.\n(§2) Test chemicals were formulated in a non-phytotoxic solvent mixture which included a surfactant and applied preemergence to the surface of the pot containing seeds in a sandy loam soil. Untreated control pots and treated pots were placed in the greenhouse for growth and visually evaluated for injury 14 to 21 days after herbicide application. Plant response ratings, summarized in Table C, are based on a 0 to 100 scale where 0 is no injury and 100 is complete control. A dash (−) response means no test result."}, "pitted morningglory": {"system": "pitted morningglory", "experiment": "Test D pitted morningglory", "format": "in vivo, Ipomoea lacunosa", "settings": "Preemergence, 0 to 100 scale", "summary_of_the_method": "(§3)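 Greenhouse pots, sandy loam, single species per pot. Preemergence tests: soil-surface application ≤1 day after planting. Compound formulated in non-phytotoxic solvent with surfactant. Visual rating 14–21 DAT, scale 0–100.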"}, "sandbur": {"system": "sandbur", "experiment": "Test D sandbur", "format": "in vivo, Cenchrus echinatus", "settings": "Preemergence, 0 to 100 scale", "from_the_text": "as §1, §2"}, "purple nutsedge": {"system": "purple nutsedge", "experiment": "Test D purple nutsedge", "format": "in vivo, Cyperus rotundus", "settings": "Preemergence, 0 to 100 scale", "summary_of_the_method": "as §3"}, "surinam grass": {"system": "surinam grass", "experiment": "Test D surinam grass", "format": "in vivo, Brachiaria decumbens", "settings": "Preemergence, 0 to 100 scale", "summary_of_the_method": "as §3"}, "Green foxtail [1]": {"system": "Green foxtail", "experiment": "Test D green foxtail", "format": "in vivo", "settings": "Preemergence, 0 to 100 scale", "summary_of_the_method": "as §3"}, "Green foxtail [2]": {"system": "Green foxtail", "experiment": "Test D green foxtail", "format": "in vivo", "summary_of_the_method": "as §3"}, "tall mallow": {"system": "tall mallow", "experiment": "Test D tall mallow", "format": "in vivo, Malva sylvestris", "settings": "Preemergence, 0 to 100 scale", "from_the_text": "as §1, §2"}, "Spanishneedles": {"system": "Spanishneedles", "experiment": "Test D Spanishneedles", "format": "in vivo, Bidens bipinnata", "settings": "Preemergence, 0 to 100 scale", "from_the_text": "as §1, §2"}, "common groundsel": {"system": "common groundsel", "experiment": "Test D common groundsel", "format": "in vivo, Senecio vulgaris", "settings": "Preemergence, 0 to 100 scale", "from_the_text": "as §1, §2"}, "common pursiane": {"system": "common pursiane", "experiment": "Test D common purslane", "format": "in vivo, Portulaca oleracea", "settings": "Preemergence, 0 to 100 scale", "from_the_text": "as §1, §2"}, "itchgrass": {"system": "itchgrass", "experiment": "Test D itchgrass", "format": "in vivo, Rottboellia exaltata", "settings": "Preemergence, 0 to 100 scale", "summary_of_the_method": "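Scoring used a 0–100 visual injury scale, with 0 meaning no effect and 100 complete control, assessed 14–21 days after application alongside untreated pots. Preemergence treatments went onto sandy loam surfaces of separately potted seeds within a day of sowing.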"}, "bermuda-grass": {"system": "bermuda-grass", "experiment": "Test D bermudagrass", "format": "in vivo, Cynodon dactylon", "settings": "Preemergence, 0 to 100 scale", "summary_of_the_method": "as §3"}, "Johnson grass": {"system": "Johnson grass", "experiment": "Test D Johnson grass", "format": "in vivo, Sorghum halepense", "settings": "Preemergence, 0 to 100 scale", "summary_of_the_method": "as §3"}, "guineagrass": {"system": "guineagrass", "experiment": "Test D guineagrass", "format": "in vivo, Panicum maximum", "settings": "Preemergence, 0 to 100 scale", "summary_of_the_method": "as §3"}, "[3]": {"settings": "Rate 16 g/ha, 0 no injury, 100 complete control"}, "[4]": {"settings": "Rate 32 g/ha, 0 no injury, 100 complete control"}, "[5]": {"settings": "Rate 64 g/ha, 0 no injury, 100 complete control"}, "[6]": {"settings": "Rate 125 g/ha, 0 no injury, 100 complete control"}, "[7]": {"settings": "Rate 64 g/ha, Preemergence; 0 to 100 scale, 0 no injury, 100 complete control"}, "[8]": {"settings": "Rate 125 g/ha, Preemergence; 0 to 100 scale, 0 no injury, 100 complete control"}}}
{"smiles": "COc1ccccc1-n1c(=O)on(C(=O)N(c2ccc(F)cc2)C(C)C)c1=O", "note": "[Compound 30]", "values": [{"measurement": "Plant response rating, Large crabgrass", "setting": "large crabgrass; [3]", "value": 40}, {"measurement": "Plant response rating, Large crabgrass", "setting": "large crabgrass; [4]", "value": 40}, {"measurement": "Plant response rating, Large crabgrass", "setting": "large crabgrass; [5]", "value": 85}, {"measurement": "Plant response rating, Large crabgrass", "setting": "large crabgrass; [6]", "value": 98}, {"measurement": "Plant response rating, Large crabgrass", "setting": "large crabgrass; Rate 250 g/ha", "value": 98}, {"measurement": "Plant response rating, Large crabgrass", "setting": "large crabgrass; Rate 500 g/ha", "value": 100}, {"measurement": "Plant response rating, P. morninglory", "setting": "pitted morningglory; [3]", "value": 0}, {"measurement": "Plant response rating, P. morninglory", "setting": "pitted morningglory; [4]", "value": 0}, {"measurement": "Plant response rating, P. morninglory", "setting": "pitted morningglory; [5]", "value": 0}, {"measurement": "Plant response rating, P. morninglory", "setting": "pitted morningglory; [6]", "value": 0}, {"measurement": "Plant response rating, P. morninglory", "setting": "pitted morningglory; Rate 250 g/ha", "value": 0}, {"measurement": "Plant response rating, P. morninglory", "setting": "pitted morningglory; Rate 500 g/ha", "value": 0}, {"measurement": "Plant response rating, Sandbur", "setting": "sandbur; [3]", "value": 0}, {"measurement": "Plant response rating, Sandbur", "setting": "sandbur; [4]", "value": 0}, {"measurement": "Sandbur plant response rating", "setting": "sandbur; [5]", "value": 0}, {"measurement": "Sandbur plant response rating", "setting": "sandbur; [6]", "value": 40}, {"measurement": "Plant response rating, Sandbur", "setting": "sandbur; Rate 250 g/ha", "value": 40}, {"measurement": "Plant response rating, Sandbur", "setting": "sandbur; Rate 500 g/ha", "value": 100}, {"measurement": "Plant response rating, Purple nutsedge", "setting": "purple nutsedge; [3]", "value": 0}, {"measurement": "Plant response rating, Purple nutsedge", "setting": "purple nutsedge; [4]", "value": 0}, {"measurement": "Purple nutsedge plant response rating", "setting": "purple nutsedge; [5]", "value": 0}, {"measurement": "Purple nutsedge plant response rating", "setting": "purple nutsedge; [6]", "value": 0}, {"measurement": "Plant response rating, Purple nutsedge", "setting": "purple nutsedge; Rate 250 g/ha", "value": 0}, {"measurement": "Plant response rating, Purple nutsedge", "setting": "purple nutsedge; Rate 500 g/ha", "value": 0}, {"measurement": "Plant response rating, Surinam grass", "setting": "surinam grass; [4]", "value": 40}, {"measurement": "Surinam grass plant response rating", "setting": "surinam grass; [5]", "value": 40}, {"measurement": "Surinam grass plant response rating", "setting": "surinam grass; [6]", "value": 40}, {"measurement": "Plant response rating, Surinam grass", "setting": "surinam grass; Rate 250 g/ha", "value": 85}, {"measurement": "Plant response rating, Surinam grass", "setting": "surinam grass; Rate 500 g/ha", "value": 85}, {"measurement": "Plant response rating, Green foxtail", "setting": "Green foxtail [1]; Rate 250 g/ha", "value": 100}, {"measurement": "Plant response rating, Green foxtail", "setting": "Green foxtail [1]; Rate 500 g/ha", "value": 100}, {"measurement": "Plant response rating, Green foxtail", "setting": "Green foxtail [2]; Preemergence; Rate 16 g/ha; 0 to 100 scale, 0 no injury, 100 complete control", "value": 0}, {"measurement": "Plant response rating, Green foxtail", "setting": "Green foxtail [2]; Preemergence; Rate 32 g/ha; 0 to 100 scale, 0 no injury, 100 complete control", "value": 50}, {"measurement": "Plant response rating, Green foxtail", "setting": "Green foxtail [2]; Rate 16 g/ha; Preemergence; 0 to 100 scale, 0 no injury, 100 complete control", "value": 0}, {"measurement": "Green foxtail plant response rating", "setting": "Green foxtail [2]; [7]", "value": 85}, {"measurement": "Plant response rating, Green foxtail", "setting": "Green foxtail [2]; [7]", "value": 85}, {"measurement": "Green foxtail plant response rating", "setting": "Green foxtail [2]; [8]", "value": 85}, {"measurement": "Plant response rating, Green foxtail", "setting": "Green foxtail [2]; [8]", "value": 85}, {"measurement": "Plant response rating, Green foxtail", "setting": "Green foxtail [2]; Rate 250 g/ha; Preemergence; 0 to 100 scale", "value": 100}, {"measurement": "Plant response rating, Green foxtail", "setting": "Green foxtail [2]; Rate 500 g/ha, Preemergence; 0 to 100 scale", "value": 100}, {"measurement": "Plant response rating, Tall Mallow", "setting": "tall mallow; [3]", "value": 0}, {"measurement": "Plant response rating, Tall Mallow", "setting": "tall mallow; [4]", "value": 0}, {"measurement": "Tall Mallow plant response rating", "setting": "tall mallow; [5]", "value": 0}, {"measurement": "Tall Mallow plant response rating", "setting": "tall mallow; [6]", "value": 0}, {"measurement": "Plant response rating, Tall Mallow", "setting": "tall mallow; Rate 250 g/ha", "value": 0}, {"measurement": "Plant response rating, Tall Mallow", "setting": "tall mallow; Rate 500 g/ha", "value": 0}, {"measurement": "Plant response rating, Spanishneedles", "setting": "Spanishneedles; [3]", "value": 0}, {"measurement": "Plant response rating, Spanishneedles", "setting": "Spanishneedles; [4]", "value": 0}, {"measurement": "Spanishneedles plant response rating", "setting": "Spanishneedles; [5]", "value": 0}, {"measurement": "Spanishneedles plant response rating", "setting": "Spanishneedles; [6]", "value": 0}, {"measurement": "Plant response rating, Spanishneedles", "setting": "Spanishneedles; Rate 500 g/ha", "value": 0}, {"measurement": "Plant response rating, Com. groundsel", "setting": "common groundsel; [3]", "value": 0}, {"measurement": "Plant response rating, Com. groundsel", "setting": "common groundsel; [4]", "value": 0}, {"measurement": "Plant response rating, Com. groundsel", "setting": "common groundsel; [5]", "value": 0}, {"measurement": "Plant response rating, Com. groundsel", "setting": "common groundsel; [6]", "value": 0}, {"measurement": "Plant response rating, Com. groundsel", "setting": "common groundsel; Rate 250 g/ha", "value": 0}, {"measurement": "Plant response rating, Com. groundsel", "setting": "common groundsel; Rate 500 g/ha", "value": 100}, {"measurement": "Plant response rating, C. purslane", "setting": "common pursiane; [3]", "value": 0}, {"measurement": "Plant response rating, C. purslane", "setting": "common pursiane; [4]", "value": 0}, {"measurement": "Plant response rating, C. purslane", "setting": "common pursiane; [5]", "value": 0}, {"measurement": "Plant response rating, C. purslane", "setting": "common pursiane; [6]", "value": 0}, {"measurement": "Plant response rating, C. purslane", "setting": "common pursiane; Rate 250 g/ha", "value": 0}, {"measurement": "Plant response rating, C. purslane", "setting": "common pursiane; Rate 500 g/ha", "value": 0}, {"measurement": "Plant response rating, Itchgrass", "setting": "itchgrass; [3]", "value": 20}, {"measurement": "Plant response rating, Itchgrass", "setting": "itchgrass; [4]", "value": 20}, {"measurement": "Plant response rating, Itchgrass", "setting": "itchgrass; [5]", "value": 40}, {"measurement": "Plant response rating, Itchgrass", "setting": "itchgrass; [6]", "value": 75}, {"measurement": "Plant response rating, Itchgrass", "setting": "itchgrass; Rate 250 g/ha", "value": 75}, {"measurement": "Plant response rating, Bermudagrass", "setting": "bermuda-grass; [3]", "value": 50}, {"measurement": "Plant response rating, Bermudagrass", "setting": "bermuda-grass; [4]", "value": 65}, {"measurement": "Plant response rating, Bermudagrass", "setting": "bermuda-grass; [5]", "value": 98}, {"measurement": "Plant response rating, Bermudagrass", "setting": "bermuda-grass; [6]", "value": 98}, {"measurement": "Plant response rating, Bermudagrass", "setting": "bermuda-grass; Rate 250 g/ha", "value": 98}, {"measurement": "Plant response rating, Bermudagrass", "setting": "bermuda-grass; Rate 500 g/ha", "value": 100}, {"measurement": "Plant response rating, Johnsongrass", "setting": "Johnson grass; [3]", "value": 0}, {"measurement": "Plant response rating, Johnsongrass", "setting": "Johnson grass; [4]", "value": 0}, {"measurement": "Plant response rating, Johnsongrass", "setting": "Johnson grass; [5]", "value": 0}, {"measurement": "Plant response rating, Johnsongrass", "setting": "Johnson grass; [6]", "value": 0}, {"measurement": "Plant response rating, Johnsongrass", "setting": "Johnson grass; Rate 250 g/ha", "value": 0}, {"measurement": "Plant response rating, Johnsongrass", "setting": "Johnson grass; Rate 500 g/ha", "value": 40}, {"measurement": "Plant response rating, Guineagrass", "setting": "guineagrass; [3]", "value": 30}, {"measurement": "Plant response rating, Guineagrass", "setting": "guineagrass; [4]", "value": 30}, {"measurement": "Plant response rating, Guineagrass", "setting": "guineagrass; [5]", "value": 40}, {"measurement": "Plant response rating, Guineagrass", "setting": "guineagrass; [6]", "value": 75}, {"measurement": "Plant response rating, Guineagrass", "setting": "guineagrass; Rate 250 g/ha", "value": 98}, {"measurement": "Plant response rating, Guineagrass", "setting": "guineagrass; Rate 500 g/ha", "value": 98}]}
